In patent US20130338220A1, “COMPOSITIONS, DOSAGES, AND METHODS OF USING TETRAHYDROCANNABINOL DERIVATIVES” (priority 2010, published 2013):

Experiments:
[1] = single ascending dose study of immediate release ajulemic acid, adverse events; type: in vivo, human
Excerpt: FIG. 1 is a graph of the dose proportionality of Cmax and AUC0-24 in a single dose study in human subjects of immediate release ajulemic acid.
(§1) Administration of immediate release formulations of the THC derivative ajulemic acid may result in adverse events. Representative pharmacokinetic data for administration of ajulemic acid in immediate release form is shown in FIG. 1 (single ascending dose) and 2 (multiple ascending dose). The data in FIG. 2 are based on greater sampling days 1 and 7. In the single dose study, adverse events were observed when 80 mg or higher was administered. In the multiple dose study, adverse events were observed when 40, 60, and 80 mg was administered three times a day. In the single ascending dose study in fasted subjects, the most frequently occurring adverse events were dizziness (33.3%); nausea (20.8%); vomiting (14.6%); pallor (12.5%); dry mouth; headache; somnolence; tremor; and disorientation (10.4%). Other adverse events include tachycardia, fatigue, feeling drunk, paraesthesia, and euphoric mood (6.3%); and muscle spasms, muscle tightness, disturbance in attention, deja vu, and altered mood (4.2%). In the multiple ascending dose study, the most frequently occurring adverse events were dizziness (38.9%); nausea and somnolence (16.7%); and dry mouth, fatigue, feeling abnormal, anorexia, inappropriate affect, and orthostatic hypotension (11.1%).

[2] = multiple ascending dose study of immediate release ajulemic acid three times a day, adverse events; type: in vivo, human
Experimental: FIG. 2 is a graph of the concentration of ajulemic acid as a function of time in a multiple ascending dose study in human subjects of ajulemic acid administered in an immediate release formulation three times a day (6-6-12 hours). For the 80<=60 mg data, the first four doses were 80 mg and all remaining doses were 60 mg.
as §1

[3] = single ascending dose, fasted subjects

Structure (SMILES): CCCCCCC(C)(C)c1cc(O)c2c(c1)OC(C)(C)[C@@H]1CC=C(C(=O)O)C[C@@H]21 [ajulemic acid, (6aR,10aR)-3-(1,1-dimethylheptyl)-Δ8-tetrahydro-cannabinol-9-carboxylic acid]
- adverse event frequency: altered mood [1, 3]: 4.2%
- adverse event frequency: deja vu [1, 3]: 4.2%
- adverse event frequency: disorientation [1, 3]: 10.4%
- adverse event frequency: disturbance in attention [1, 3]: 4.2%
- adverse event frequency: dizziness [1, 3]: 33.3%
- adverse event frequency: dry mouth [1, 3]: 10.4%
- adverse event frequency: euphoric mood [1, 3]: 6.3%
- adverse event frequency: fatigue [1, 3]: 6.3%
- adverse event frequency: feeling drunk [1, 3]: 6.3%
- adverse event frequency: headache [1, 3]: 10.4%
- adverse event frequency: muscle spasms [1, 3]: 4.2%
- adverse event frequency: muscle tightness [1, 3]: 4.2%
- adverse event frequency: nausea [1, 3]: 20.8%
- adverse event frequency: pallor [1, 3]: 12.5%
- adverse event frequency: paraesthesia [1, 3]: 6.3%
- adverse event frequency: somnolence [1, 3]: 10.4%
- adverse event frequency: tachycardia [1, 3]: 6.3%
- adverse event frequency: tremor [1, 3]: 10.4%
- adverse event frequency: vomiting [1, 3]: 14.6%
- dose at which adverse events were observed ([1]; single dose study): ≥ 80 mg
- adverse event frequency: anorexia [2]: 11.1%
- adverse event frequency: dizziness [2]: 38.9%
- adverse event frequency: dry mouth [2]: 11.1%
- adverse event frequency: fatigue [2]: 11.1%
- adverse event frequency: feeling abnormal [2]: 11.1%
- adverse event frequency: inappropriate affect [2]: 11.1%
- adverse event frequency: nausea [2]: 16.7%
- adverse event frequency: orthostatic hypotension [2]: 11.1%
- adverse event frequency: somnolence [2]: 16.7%
